Source: ChEMBL document CHEMBL1201862, “PubChem BioAssay data set” (2004)
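These data come from cells grown in 96-well plates and exposed to compound for 48 hours at five concentrations. Here, GI50 denotes the concentration required for 50% inhibition of growth.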 The source made the active and inactive calls. Rule as the data show it: active = GI50 up to about 1.1 µM and inactive = higher.

Experiments:
Test in all cases: inhibition of tumour cell growth, NCI panel, 48 h
CCRF-CEM = system: CCRF-CEM
HCT-15 = system: HCT-15
NCI-H522 = system: NCI-H522
HT-29 = system: HT-29
HOP-62 = system: HOP-62
NCI/ADR-RES = system: NCI/ADR-RES
ACHN = system: ACHN
K562 = system: K562
MDA-N = system: MDA-N
IGROV-1 = system: IGROV-1
786-0 = system: 786-0
UACC-257 = system: UACC-257
NCI-H23 = system: NCI-H23
HCC 2998 = system: HCC 2998
MDA-MB-231 = system: MDA-MB-231
SK-MEL-5 = system: SK-MEL-5
NCI-H226 = system: NCI-H226
SNB-75 = system: SNB-75
TK-10 = system: TK-10
MOLT-4 = system: MOLT-4
SR = system: SR
KM12 = system: KM12
OVCAR-8 = system: OVCAR-8
BT-549 = system: BT-549
MCF7 = system: MCF7
UO-31 = system: UO-31
PC-3 = system: PC-3
HOP-92 = system: HOP-92
SNB-19 = system: SNB-19
MDA-MB-435 = system: MDA-MB-435
Malme-3M = system: Malme-3M
COLO 205 = system: COLO 205
SN12C = system: SN12C
T47D = system: T47D
U-251 = system: U-251
Hs-578T = system: Hs-578T
RXF 393 = system: RXF 393
SF-268 = system: SF-268
SF-295 = system: SF-295
SK-OV-3 = system: SK-OV-3
HL-60 = system: HL-60
SK-MEL-2 = system: SK-MEL-2
A549 = system: A549
LOX IMVI = system: LOX IMVI
SK-MEL-28 = system: SK-MEL-28
DU-145 = system: DU-145
OVCAR-3 = system: OVCAR-3
UACC-62 = system: UACC-62
SW-620 = system: SW-620
A498 = system: A498
HCT-116 = system: HCT-116
CAKI-1 = system: CAKI-1
EKVX = system: EKVX
RPMI-8226 = system: RPMI-8226
NCI-H460 = system: NCI-H460
SF-539 = system: SF-539
M14 = system: M14
OVCAR-4 = system: OVCAR-4
OVCAR-5 = system: OVCAR-5

Measured: GI50

O=S(=O)(Nc1nc2ccccc2nc1Nc1ccc2ccccc2c1)c1ccccc1
11.1 µM: HCT-15
inactive: CCRF-CEM 20 µM | NCI-H522 5.15 µM | HT-29 11 µM | HOP-62 10.7 µM | NCI/ADR-RES 5.73 µM | ACHN 17.3 µM | K562 22.5 µM | MDA-N 19.5 µM | IGROV-1 9.59 µM | 786-0 20.3 µM | UACC-257 26.1 µM | NCI-H23 6.89 µM | HCC 2998 7.1 µM | MDA-MB-231 26.4 µM | SK-MEL-5 10.9 µM | NCI-H226 16.7 µM | SNB-75 26.5 µM | TK-10 27.1 µM | MOLT-4 5.24 µM | SR 13.2 µM | KM12 6 µM | OVCAR-8 14.4 µM | BT-549 15.8 µM | MCF7 10.9 µM | UO-31 3.61 µM | PC-3 3.3 µM | HOP-92 5.06 µM | SNB-19 9.42 µM | MDA-MB-435 10.8 µM | Malme-3M 4.53 µM | COLO 205 12.4 µM | SN12C 10.4 µM | T47D 5.68 µM | U-251 5.78 µM | Hs-578T 14.3 µM | RXF 393 20.4 µM | SF-268 17.9 µM | SF-295 5.07 µM | SK-OV-3 7.78 µM | HL-60 5.77 µM | SK-MEL-2 3.19 µM | A549 5.96 µM | LOX IMVI 17.8 µM | SK-MEL-28 12.1 µM | DU-145 20.3 µM | OVCAR-3 1.87 µM | UACC-62 4.67 µM | SW-620 7.38 µM | A498 28.3 µM | HCT-116 7.8 µM | CAKI-1 27.4 µM | EKVX 11.7 µM | RPMI-8226 2.44 µM | NCI-H460 7.53 µM | SF-539 15.3 µM | M14 9.04 µM | OVCAR-4 4.67 µM | OVCAR-5 26.4 µM

CC1(C)S[C@@H]2[C@H](NC(=O)C3(N)CCCCC3)C(=O)N2[C@H]1C(=O)O [CYCLACILLIN]
> 100 µM: HCT-15
inactive: CCRF-CEM > 100 µM | NCI-H522 > 100 µM | HT-29 > 100 µM | HOP-62 > 100 µM | NCI/ADR-RES > 100 µM | ACHN > 100 µM | K562 > 100 µM | MDA-N > 100 µM | IGROV-1 > 100 µM | 786-0 > 100 µM | UACC-257 > 100 µM | NCI-H23 > 100 µM | HCC 2998 > 100 µM | MDA-MB-231 > 100 µM | SK-MEL-5 > 100 µM | NCI-H226 > 100 µM | SNB-75 > 100 µM | TK-10 > 100 µM | MOLT-4 > 100 µM | SR > 100 µM | KM12 > 100 µM | OVCAR-8 > 100 µM | BT-549 > 100 µM | MCF7 > 100 µM | UO-31 > 100 µM | PC-3 > 100 µM | HOP-92 > 100 µM | SNB-19 > 100 µM | MDA-MB-435 > 100 µM | Malme-3M > 100 µM | COLO 205 > 100 µM | SN12C > 100 µM | T47D > 100 µM | U-251 > 100 µM | Hs-578T > 100 µM | RXF 393 > 100 µM | SF-268 > 100 µM | SF-295 > 100 µM | SK-OV-3 > 100 µM | HL-60 > 100 µM | SK-MEL-2 > 100 µM | A549 > 100 µM | LOX IMVI > 100 µM | SK-MEL-28 > 100 µM | DU-145 > 100 µM | OVCAR-3 > 100 µM | UACC-62 > 100 µM | SW-620 > 100 µM | A498 > 100 µM | HCT-116 > 100 µM | CAKI-1 > 100 µM | EKVX > 100 µM | RPMI-8226 > 100 µM | NCI-H460 > 100 µM | SF-539 > 100 µM | M14 > 100 µM | OVCAR-4 > 100 µM | OVCAR-5 > 100 µM
